Test results as given in patent US7160875B2, “Malonamide derivatives” (priority 2003, dated 2007).

Biological target: γ-secretase (Homo sapiens, UniProt P49768)
Assay: in vitro γ-secretase assay (HEK293 membrane fraction, recombinant APP substrate, Abeta ELISA)
Assay type: biochemical
Settings: γ-secretase inhibition; HEK293 membrane fraction solubilized in 0.25% CHAPSO, C-terminal 100 amino acids of human APP as substrate, Abeta detected by ELISA
Description: The activity of test compounds can be evaluated in assays which measure the proteolytic cleavage of suitable substrates by γ-secretase activity. These can be cellular assays where e.g., a substrate of the γ-secretase is fused in its cytoplasmic domain to a transcription factor. Cells are transfected with this fusion gene and a reporter gene, e.g., firefly luciferase, which expression is enhanced by the transcription factor. Cleavage of the fused substrate by γ-secretase will lead to expression of the reporter gene which can be monitored in appropriate assays. The γ-secretase activity can also be determined in cell-free in vitro […] containing the γ-secretase complex is incubated with a suitable APP-derived substrate which is cleaved to the Abeta peptides. The amount of produced peptides can be determined with specific ELISA assays. Cell lines of neuronal origin secrete Abeta peptides which can be measured with the specific ELISA assay. Treatment with compounds which inhibit γ-secretase leads to a reduction of secreted Abeta thus providing a measure of inhibition. The in vitro assay of γ-secretase activity uses a HEK293 membrane fraction as a source of γ-secretase and a recombinant APP substrate. The latter consist of the C-terminal 100 amino acids of human APP fused to a 6× Histidin tail for purification which is expressed in E. coli in a regulatable expression vector, e.g. pEt15. This recombinant protein corresponds to the truncated APP fragment which results after […] of the extracellular domain and which constitutes the γ-secretase substrate. The assay principle is described in Li Y M et al, PNAS 97(11), 6138-6143 (2000). Hek293 cells are mechanically disrupted, and the microsomal fraction is isolated by differential centrifugation. The membranes are solubilized in detergent (0.25% CHAPSO) and incubated with the APP substrate. The Abeta peptides which are produced by γ-secretase cleavage of the substrate are detected by specific ELISA assays as described (Brockhaus M et al, Neuroreport 9(7), 1481-1486 (1998).

Compound	IC50 [µM]
5-Methyl-4-oxo-(3S)-[(2RS)-(2,2,3,3,3-pentafluoro-propylcarbamoyl)-propionylamino]-2,3,4,5-tetrahydro-benzo[b][1,4]diazepine-1-carboxylic acid cyclopropylmethyl estermalonamide [Example 106]	0.09
CC(C(=O)NCC(F)(F)C(F)(F)F)C(=O)N[C@H]1CN(S(=O)(=O)C(F)(F)F)c2ccccc2N(C)C1=O (mixture of isomers) [Example 95, (2RS)-Methyl-N-((3S)-1-methyl-2-oxo-5-trifluorromethanesulfonyl-2,3,4,5-tetrahydro-1H-benzo[b][1,4]diazepin-3-yl)-N′-(2,2,3,3,3-pentafluoro-propyl)-malonamide]	0.071
CC(C(=O)NCC(F)(F)C(F)(F)F)C(=O)N[C@H]1CN(C(=O)OCC2CC2)c2ccccc2N(CC(F)(F)F)C1=O (mixture of isomers) [Example 109, 4-Oxo-(3S)-[(2RS)-(2,2,3,3,3-pentafluoro-propylcarbamoyl)-propionylamino]-5-(2,2,2-trifluoro-ethyl)-2,3,4,5-tetrahydro-benzo[b][1,4]diazepine-1-carboxylic Acid Cyclopropylmethyl Ester]	0.048
CC(C)(C(=O)NCC(F)(F)C(F)(F)F)C(=O)N[C@@H]1C(=O)Nc2ccccc2-c2ccccc21 [Example 67, 2,2-Dimethyl-N-((S)-6-oxo-6,7-dihydro-5H-dibenzo[b,d]azepin-7-yl)-N′-(2,2,3,3,3-pentafluoro-propyl)-malonamide]	0.004
